Literature values, collected in PMC5668067, “Phase I dose-escalation study of the c-Met tyrosine kinase inhibitor SAR125844 in Asian patients with advanced solid tumors, including patients with MET-amplified gastric cancer” (Oncotarget, 2017).

Legend:
[1] = system: MET-amplified gastroesophageal junction, gastric, or esophageal tumors; design: method as in ref 16 = [16]; 16 Kwak EL LoRusso P Hamid O Janku F Kittaneh M Catenacci DV Chan E Bekaii-Saab TS Amore B Hwang YC Tang R Ngarmchamnanrith G Hong DS Clinical activity of AMG 337, an oral MET kinase inhibitor, in adu; conditions: eight of 13 patients with MET-amplified tumors; cited from earlier work
[2] = system: highly MET-amplified (MET:CEP7 >5) gastroesophageal cancers; design: method as in PMID 22042947; conditions: cited from earlier work
[3] = system: unselected gastric cancer patients; conditions: cited from earlier work
[4] = system: gastric or gastroesophageal junction cancer; conditions: cited from earlier work

COCCOc1cnc2ccn([C@H](C)c3nnc4c(F)cc(-c5cnn(C)c5)cn34)c(=O)c2c1 [AMG 337]
partial or near complete response [1]: 62%

C[C@@H](Oc1cc(-c2cnn(C3CCNCC3)c2)cnc1N)c1c(Cl)ccc(F)c1Cl [crizotinib]
patients with tumor shrinkage [2]: two of four

COc1cc2c(Oc3ccc(NC(=O)C4(C(=O)Nc5ccc(F)cc5)CC4)cc3F)ccnc2cc1OCCCN1CCOCC1 [foretinib]
objective responses [3]: no objective responses

O=C1NC(=O)[C@@H](c2cn3c4c(cccc24)CCC3)[C@@H]1c1c[nH]c2ccccc12 [tivantinib]
objective responses [3]: no objective responses

onartuzumab: an anti-c-Met antibody
survival benefit of addition to chemotherapy ([4]; regardless of c-Met expression): no survival advantage

rilotumumab: an anti-HGF antibody
clinical benefit combined with chemotherapy ([4]; c-Met-positive gastric or gastroesophageal junction cancer): failed to show clinical benefit
